# Measurements from patent US8653026B2, “Treatment of type 2 diabetes with FTY720” (Diapin Therapeutics LLC, priority 2011, dated 2014).
# Key:
# [1] = system: db/db mice; assay: Insulin tolerance test; assay type: in vivo, mouse
# Experimental: FIG. 5B. Insulin tolerance test (ITT). db/db mice with or without FTY720 treatment were fasted for 6 hours, and injected intraperitoneally with human regular insulin (0.55 U/kg) (Sigma), […] Open circle (∘), FTY720-untreated group; solid circle (●), FTY720-treated group. *p<0.05.
# For the glucose tolerance test, the mice were fasted for 16 h and intraperitoneally injected with 10% glucose (1 mg/g of body weight). Glucose levels were then measured after 0, 30, 60, 90, and 120 min by a Glucometer Elite (Bayer Corp., Elkhart, Ind.) (29). For the insulin tolerance test, the mice were fasted for 6 h and injected intraperitoneally with human regular insulin (0.55 units/kg) (Sigma). […]
# [2] = system: Bcl-2; assay: Bcl-2 mRNA levels in islets of db/db mice; assay type: in vivo, mouse; conditions: islets from FTY720-treated db/db mice vs untreated
# Experimental: FIG. 10A. Levels of Bcl-2 mRNA levels of the db/db mice with (+FTY720) or without FTY720 (−FTY720) treatment. *p=0.0006
# (§1) Islets were isolated from pancreases removed from the 13-week-old untreated and FTY720-treated db/db mice by Liberase (Roche Diagnostics) digestion, followed by discontinuous Ficoll gradient separation and manual stereomicroscopic selection to exclude contaminating tissues (30). Isolated islets (or INS-1 cells) were cultured in the medium (composed of RPMI 1640 medium supplemented with 10% fetal bovine serum, 2 mM L-glutamine, 1% sodium pyruvate, 50 μM β-mercaptoethanol, 100 units/ml of penicillin, and 100 μg/ml of streptomycin). For treatment of INS-1 cells, the cells were plated in RPMI medium overnight and changed to Hanks' balanced salt solution containing 2 mM glucose and 0.5% FBS overnight. Then the cells were treated with various conditions in the same medium for 24 hours.
# To determine the mechanism of action (MOA) behind the increase in beta-cell mass observed in the treated mice, beta-cell survival was examined.
# [3] = system: pancreatic islets; assay: Islet morphology (HE and insulin immunostaining) and islet area quantification in pancreas; assay type: in vivo, mouse
# Text: FIG. 7. Hematoxylin and eosin (HE) staining of pancreas from the FTY720-untreated and the treated mice. After 6 and 9 weeks of treatment, pancreases were removed from the db/db mice and embedded in paraffin. Paraffin sections (10 μm thick) were stained with HE and analyzed with a microscope (Scale bar, 50 μm).
# FIG. 8. Insulin immunostaining (green fluorescence) of the pancreatic islets. After 6 and 9 weeks treatment of FTY720, pancreases were removed from the db/db mice and embedded in paraffin. Paraffin sections (10 μm thick) were immunostained fluorescently for insulin (green color) (Scale bar 50 μm).
# FIG. 9. Stereological quantification of the islet areas in the FTY720-untreated and the FTY720-treated db/db mice. […]
# To assess islet area in pancreas after 6 weeks of treatment with FTY720, six consecutive paraffin sections (10 μm) from a pancreas (10 pancreases for the control and 9 pancreases for the FTY720-treated group) were used. All islet images on a whole section were taken by a Axioplan 2 microscope at X10 magnification, each islet area was measured by the Java-based image-processing program ImageJ (National Institutes of Health, Bethesda, Md.), and the sum of all islet areas from a section was considered to be the islet area per pancreas.
# [4] = patients with relapsing multiple sclerosis; cited from earlier work
# [5] = system: PDX-1; assay: PDX-1 expression in isolated islets from db/db mice; assay type: in vivo, mouse; conditions: islets from FTY720-treated db/db mice
# Experimental: FIG. 14. PDX-1 expression in the isolated islets from the db/db mice with (+FTY720) or without FTY720 (−FTY720) treatment (*p=0.0006).
# as §1
# Expression of pancreatic and duodenal homeobox 1 (PDX-1), a transcription factor, is required for pancreatic development and β-cell maturation.
# [6] = system: S1P4; assay: S1P receptor expression in islets from db/db mice: S1P4; assay type: in vivo, mouse; conditions: after FTY720 treatment of db/db mice
# Text: FIG. 15. Expression of 4 FTY720-bound S1P receptors in the islets isolated from the db/db mice.
# FTY720 is phosphorylated in vivo to form FTY720-P that binds S1P1, S1P3, S1P4, and S1P5 but not S1P2 (25). We determined the expression of these receptors in the islets isolated from the untreated and FTY720-treated db/db mice.
# [7] = system: beta-cell; assay: In vivo BrdU incorporation (beta-cell regeneration) in pancreas; design: species or system mouse
# Experimental: FIG. 11. BrdU staining in the pancreatic islets after 6 weeks FTY720 treatment. After overnight fasting, the mice were given 1 mg/ml 5-bromo-2′deoxyuridine (BrdU) intraperitoneally. 24 hours later, mice were sacrificed for BrdU staining of pancreas sections. Positive BrdU staining indicates cell proliferation.
# FIG. 12. BrdU staining in the duct areas of the pancreas. After 6 weeks FTY720 treatment, overnight fasted mice were given 1 mg/ml 5-bromo-2′deoxyuridine (BrdU) intraperitoneally. 24 hours later, mice were sacrificed for BrdU staining of pancreas sections.
# FIG. 13. Insulin immunostaining in newly formed insulin containing cells and islets near duct (arrow) in the FTY720-treated db/db mice (Scale bar, 100 μm).
# After overnight fasting, the mice were given 1 mg/ml of 5-bromo-2-deoxyuridine (BrdU) in PBS intraperitoneally. Mice were sacrificed 24 hours after BrdU injection and pancreases were removed and fixed with a 4% formaldehyde solution. The pancreases were then embedded in paraffin and sliced into 10 μm sections. Tissue sections were stained with the anti-BrdU monoclonal antibody provided in BrdU in Situ Detection Kit (BD Biosciences).
# [8] = db/db mice after 6 weeks FTY720 treatment, no staining in untreated
compound,measurement,setting,value
"CCCCCCCCc1ccc(CCC(N)(CO)CO)cc1 [FTY720, 2-amino-2-[2-(4-octylphenyl)ethyl]propane-1,3-diol]",glucose levels in treated vs untreated groups after insulin administration,[1]; after 70 min in insulin tolerance test,similar
same,insulin sensitivity,"[1]; db/db mice fasted 6 h, i.p. human regular insulin 0.55 U/kg",not affected
same,Bcl-2 mRNA levels,[2],significantly increased
same,pancreatic islet size (stereological quantification of islet areas),"[3]; db/db mice after 6 weeks of treatment, vs untreated group",significantly larger
same,islet morphology,"[3]; db/db mice, H&E and insulin immunostaining, after 6 and 9 weeks of treatment",normal islet morphology
same,cancer formation in phase III clinical trials,[4],without reported cancer formation
same,PDX-1 expression relative to islets from untreated mice,[5],6 fold
same,S1P4 expression in islets,[6],significantly elevated
same,insulin-positive cells or small islets in the pancreatic duct area,"[7]; FTY720-treated db/db mice, insulin immunostaining",identified
same,BrdU incorporation in the pancreatic duct area (beta-cell neogenesis),[7]; [8],BrdU incorporation was observed
same,BrdU staining within the islets (beta-cell proliferation),[7]; [8],BrdU-positive cells were easily observed
